Drawing on patent US11752149B2, “Muscarinic acetylcholine M1 receptor antagonists” (Pipeline Therapeutics, Inc., priority 2019, dated 2023), this text covers IC50 for five molecules.

Each structure is given as a SMILES string. Where two headings read alike, the source gives them in different places. A value given as a limit tells only on which side of the number the result lay.

What all share (type): cell-based
Experiment [1] addresses human M1 receptor (Homo sapiens (Human), UniProt P11229). Put plainly: In vitro functional assay of muscarinic acetylcholine receptor activity, aequorin calcium flux, reversal of EC80 acetylcholine. How it is done: (§1) CHO-K1 cells stably expressing human M1 receptor with aequorin (Perkin Elmer) were grown in F12 media (Gibco) containing 10% FBS (ATCC), 0.4 mg/mL geneticin (Sigma-Aldrich) and 0.25 mg/mL Zeocin (Invitrogen). Cells were grown as per the manufacturer's protocol. For compound testing, cells were grown to confluency and detached gently with Accutase (Sigma-Aldrich) followed by centrifugation for 5 min at 150×g. Cells were then re-suspended in assay buffer (i.e. DMEM/F-12 HEPES without phenol red (Invitrogen) with 0.1% BSA (Sigma-Aldrich)) at a density of 5×10^6 cells/ml. Under sterile conditions, 5 μM coelenterazine (Invitrogen) was added to the cells, mixed, then incubated at room temperature protected from light, with gentle agitation, for 4 h.
(§2) Primary compound plates were prepared in 100% DMSO in opaque 96-well plates (VWR) and serially diluted in half log increments. Secondary compound plates were prepared at 3× concentration in assay buffer. Compounds were added to white, clear bottom tissue culture treated 96-well plates (Fisher Scientific). Coelenterazine-loaded cells were then added at 5×10^5 cells/well.
(§3) Compounds and cells were incubated at room temperature for 30 min in the dark. Acetylcholine at the EC80 concentration was added and calcium flux measured using a FlexStation 3 (Molecular Devices). Sigmoidal dose-response curves were generated by measuring luminescence over 40 sec and calculating the area under the curve. Dose response curves and IC50 values were generated using Prism (GraphPad). Compounds were tested at a final concentration range of 100 pM to 10 μM in 0.1% DMSO.
For orientation: A change in cytosolic calcium serves as a functional read-out for many receptors and channels.

Experiment [2] addresses human M2 receptor (Homo sapiens (Human), UniProt P08172). The experiment can be described thus: Aequorin calcium flux assay, reversal of EC80 acetylcholine response, M2. How it is done: as §1, §2, §3
(§4) CHO-K1 cells stably expressing human M2, M3 and M4 receptors, respectively, with aequorin (Perkin Elmer) were used to assess a test compound's ability to dose-dependently reverse the EC80 acetylcholine response. The IC50 of the compounds was calculated from the dose response curve.

The target in experiment [3] is human M3 receptor (Homo sapiens (Human), UniProt P20309). The experiment can be described thus: Aequorin calcium flux assay, reversal of EC80 acetylcholine response, M3. On the procedure: as §1, §2, §3, §4
Chain of human M3 receptor (P20309 whole entry, looked up): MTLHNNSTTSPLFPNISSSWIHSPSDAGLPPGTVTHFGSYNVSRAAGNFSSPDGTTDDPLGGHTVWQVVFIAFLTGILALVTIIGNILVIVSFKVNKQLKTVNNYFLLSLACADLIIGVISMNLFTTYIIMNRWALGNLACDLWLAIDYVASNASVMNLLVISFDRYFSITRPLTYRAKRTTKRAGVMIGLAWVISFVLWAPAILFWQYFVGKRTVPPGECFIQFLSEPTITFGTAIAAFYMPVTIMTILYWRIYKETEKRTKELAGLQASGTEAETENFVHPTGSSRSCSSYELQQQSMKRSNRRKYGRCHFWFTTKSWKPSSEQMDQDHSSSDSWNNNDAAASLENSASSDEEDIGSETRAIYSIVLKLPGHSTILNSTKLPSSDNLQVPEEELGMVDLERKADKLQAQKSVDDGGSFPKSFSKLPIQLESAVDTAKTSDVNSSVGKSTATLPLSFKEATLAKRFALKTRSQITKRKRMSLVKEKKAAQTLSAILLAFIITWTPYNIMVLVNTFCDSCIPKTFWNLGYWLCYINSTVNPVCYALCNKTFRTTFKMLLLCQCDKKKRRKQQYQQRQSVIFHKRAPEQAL
In experiment [4] the target is human M4 receptor (Homo sapiens (Human), UniProt P08173). Put plainly: Aequorin calcium flux assay, reversal of EC80 acetylcholine response, M4. On the procedure: as §1, §2, §3, §4
Chain of human M4 receptor (P08173 whole entry): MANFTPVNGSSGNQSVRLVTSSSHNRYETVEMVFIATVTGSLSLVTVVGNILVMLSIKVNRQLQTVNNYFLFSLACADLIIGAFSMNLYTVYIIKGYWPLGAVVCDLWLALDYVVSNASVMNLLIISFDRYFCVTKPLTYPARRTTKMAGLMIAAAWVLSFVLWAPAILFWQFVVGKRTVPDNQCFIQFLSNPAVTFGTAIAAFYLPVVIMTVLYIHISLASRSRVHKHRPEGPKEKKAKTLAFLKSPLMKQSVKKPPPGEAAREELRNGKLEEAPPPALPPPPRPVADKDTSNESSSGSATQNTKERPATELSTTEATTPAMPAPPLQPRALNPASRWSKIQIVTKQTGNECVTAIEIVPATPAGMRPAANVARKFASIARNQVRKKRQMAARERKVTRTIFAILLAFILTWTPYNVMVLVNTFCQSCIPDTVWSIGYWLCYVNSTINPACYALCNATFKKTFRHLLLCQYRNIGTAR
The mark [5] stands for this setting: CHO-K1 cells expressing human M1 receptor with aequorin, acetylcholine at EC80, read-out: M1 IC50.
Where [6] appears, read: CHO-K1 cells expressing human M2 receptor with aequorin, acetylcholine at EC80, read-out: M2 IC50.

Chain of human M2 receptor (P08172 whole entry): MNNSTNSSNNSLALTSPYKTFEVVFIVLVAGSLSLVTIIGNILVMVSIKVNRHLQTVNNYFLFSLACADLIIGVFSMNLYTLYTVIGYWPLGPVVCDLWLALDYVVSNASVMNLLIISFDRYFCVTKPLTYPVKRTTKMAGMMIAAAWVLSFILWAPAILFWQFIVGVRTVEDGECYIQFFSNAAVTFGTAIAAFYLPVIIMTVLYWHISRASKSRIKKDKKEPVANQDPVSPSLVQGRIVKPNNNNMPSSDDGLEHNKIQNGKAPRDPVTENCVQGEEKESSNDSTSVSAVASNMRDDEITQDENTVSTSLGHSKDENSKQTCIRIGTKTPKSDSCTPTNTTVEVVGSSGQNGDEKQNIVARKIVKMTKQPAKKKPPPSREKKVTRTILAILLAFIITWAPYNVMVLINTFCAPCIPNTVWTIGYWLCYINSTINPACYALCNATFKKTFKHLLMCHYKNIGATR
Chain of human M1 receptor (P11229 whole entry): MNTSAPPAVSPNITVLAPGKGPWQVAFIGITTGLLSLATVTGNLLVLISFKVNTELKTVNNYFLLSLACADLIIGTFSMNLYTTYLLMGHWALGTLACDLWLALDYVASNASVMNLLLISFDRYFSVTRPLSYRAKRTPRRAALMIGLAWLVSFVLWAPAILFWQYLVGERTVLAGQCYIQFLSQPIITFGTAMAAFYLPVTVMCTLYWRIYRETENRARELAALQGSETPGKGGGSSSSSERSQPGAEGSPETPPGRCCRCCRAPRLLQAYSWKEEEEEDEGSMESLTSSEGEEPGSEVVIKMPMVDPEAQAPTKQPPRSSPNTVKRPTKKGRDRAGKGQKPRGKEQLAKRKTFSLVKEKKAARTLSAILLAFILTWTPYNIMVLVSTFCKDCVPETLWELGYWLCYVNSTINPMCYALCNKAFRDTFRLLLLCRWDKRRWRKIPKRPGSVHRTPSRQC

`N#Cc1ccc(N2C3CCC2CN(C(=O)CCS(=O)(=O)c2ccccc2[C@H]2CC2(F)F)C3)nc1` (single isomer, unassigned) [Example 35]: the IC50 (in general, the concentration that gives 50% inhibition) in experiment [1] (setting [5]) is under 10 nM; in experiment [2] it was 10 to 100 nM; in experiment [3] (CHO-K1 cells expressing human M3 receptor with aequorin, acetylcholine at EC80, read-out: M3 IC50) it was 100 to 1000 nM; in experiment [4] (CHO-K1 cells expressing human M4 receptor with aequorin, acetylcholine at EC80, read-out: M4 IC50), 10 to 100 nM.
In the case of `COc1cc(S(=O)(=O)CCC(=O)N2CC3CCC(C2)N3c2ccc(C#N)cn2)ccc1F` [Example 3, 6-(3-(3-((4-fluoro-3-methoxyphenyl)sulfonyl)propanoyl)-3,8-diazabicyclo[3.2.1]octan-8-yl)nicotinonitrile], the IC50 was under 10 nM in experiment [1] (setting [5]), over 10000 nM in experiment [2] (setting [6]), 100 to 1000 nM in experiment [3] and 100 to 1000 nM in experiment [4].
With `COc1cccc(S(=O)(=O)CCC(=O)N2CC3CCC(C2)N3c2ccc(C#N)cn2)c1` [Example 2, 6-(3-(3-((3-methoxyphenyl)sulfonyl)propanoyl)-3,8-diazabicyclo[3.2.1]octan-8-yl)nicotinonitrile], the IC50 was 10 to 100 nM in experiment [1], over 10000 nM in experiment [2] (setting [6]), 100 to 1000 nM in experiment [3] and 100 to 1000 nM in experiment [4].
On to `COc1cccc(S(=O)(=O)CCC(=O)N2CC3CCC(C2)N3c2ccc(C(F)(F)F)nn2)c1` [Example 17, 3-(3-methoxybenzenesulfonyl)-1-{8-[6-(trifluoromethyl)pyridazin-3-yl]-3,8-diazabicyclo[3.2.1]octan-3-yl}propan-1-one], for which the IC50 in experiment [1] lay in the range of 100 to 1000 nM.
Regarding `Cc1c(F)cccc1S(=O)(=O)CCC(=O)N1CC2CCC(C1)N2c1ccc(C#N)cn1` [Example 24, 6-{3-[3-(3-fluoro-2-methylbenzenesulfonyl)propanoyl]-3,8-diazabicyclo [3.2.1]octan-8-yl}pyridine-3-carbonitrile], the concentration for half-maximal inhibition (IC50) in experiment [1] (setting [5]) is under 10 nM; in experiment [2] (setting [6]), 1000 to 10000 nM; in experiment [3] it was 100 to 1000 nM; in experiment [4] it was 100 to 1000 nM.
